# Assays:
# Caco-2 cell line = test: Cytotoxicity MTS assay, Caco-2 cell line; type: cell-based; settings: for OD490 Mean / OD490 Well 1 / OD490 Well 2 / OD490 Well 3: Caco-2 cell line
# Procedure: (§1) The positive compounds (IC50 < 100 μM) obtained from the primary Eg5 motor protein ATPase assay were tested for antiproliferative activity in vitro against Caco-2 cell line, Hela cell line, L929 cell line and T24 cell line by performing MTS assay. Cells were introduced into 96-well plates at a density of 1000 cells per well. After 24 h incubation, the cells were exposed with compounds at final concentrations ranging from 0.5 to 100 µM for 24 h. DMSO was used at a final concentration of 0.025% as blank control, monastrol was used as the positive control. Then 20 µL (CellTiter 96® AQueous One Solution Promega, Madison, WI, USA) reagent was added in each well. After 2 h at 37 °C in a 80% humidified, 5% CO2 atmosphere, the absorbance at 490 nm was recorded using a microplate reader (BIO-RAD iMark^TM). The results were obtained in three independent duplicate experiments. The primary data were shown in Supplementary Materials Tables S4–S7. The IC50 values for these compounds were calculated from a non-linear regression graph plotted between the percentage of cell viability and concentration with SPSS17.0 software.
# T24 cell line = test: Cytotoxicity MTS assay, T24 cell line; type: cell-based; settings: for OD490 Mean / OD490 Well 1 / OD490 Well 2 / OD490 Well 3: T24 cell line
# Procedure: as §1
structure (smiles),measurement,setting,value
"CCOC(=O)C1=C(C)NC(=S)NC1c1cccc(O)c1 (centres unmarked) [Monastrol, monastrol, reference compound]",OD490 Mean,"Caco-2 cell line; 0.5μM, first assay",0.6317
same,OD490 Well 1,"Caco-2 cell line; 0.5μM, first assay",0.6883
same,OD490 Well 2,"Caco-2 cell line; 0.5μM, first assay",0.6260
same,OD490 Well 3,"Caco-2 cell line; 0.5μM, first assay",0.5808
same,OD490 Mean,"Caco-2 cell line; 0.5μM, second assay",0.6461
same,OD490 Well 1,"Caco-2 cell line; 0.5μM, second assay",0.6307
same,OD490 Well 2,"Caco-2 cell line; 0.5μM, second assay",0.6567
same,OD490 Well 3,"Caco-2 cell line; 0.5μM, second assay",0.6508
same,OD490 Mean,"Caco-2 cell line; 0.5μM, third assay",0.6299
same,OD490 Well 1,"Caco-2 cell line; 0.5μM, third assay",0.6325
same,OD490 Well 2,"Caco-2 cell line; 0.5μM, third assay",0.6000
same,OD490 Well 3,"Caco-2 cell line; 0.5μM, third assay",0.6531
same,OD490 Mean,"Caco-2 cell line; 1μM, first assay",0.6316
same,OD490 Well 1,"Caco-2 cell line; 1μM, first assay",0.6697
same,OD490 Well 2,"Caco-2 cell line; 1μM, first assay",0.6037
same,OD490 Well 3,"Caco-2 cell line; 1μM, first assay",0.6213
same,OD490 Mean,"Caco-2 cell line; 1μM, second assay",0.6874
same,OD490 Well 1,"Caco-2 cell line; 1μM, second assay",0.6746
same,OD490 Well 2,"Caco-2 cell line; 1μM, second assay",0.7532
same,OD490 Well 3,"Caco-2 cell line; 1μM, second assay",0.6345
same,OD490 Mean,"Caco-2 cell line; 1μM, third assay",0.6466
same,OD490 Well 1,"Caco-2 cell line; 1μM, third assay",0.6332
same,OD490 Well 2,"Caco-2 cell line; 1μM, third assay",0.6854
same,OD490 Well 3,"Caco-2 cell line; 1μM, third assay",0.6211
same,OD490 Mean,"Caco-2 cell line; 10μM, first assay",0.6065
same,OD490 Well 1,"Caco-2 cell line; 10μM, first assay",0.6414
same,OD490 Well 2,"Caco-2 cell line; 10μM, first assay",0.6303
same,OD490 Well 3,"Caco-2 cell line; 10μM, first assay",0.5477
same,OD490 Mean,"Caco-2 cell line; 10μM, second assay",0.6609
same,OD490 Well 1,"Caco-2 cell line; 10μM, second assay",0.6953
same,OD490 Well 2,"Caco-2 cell line; 10μM, second assay",0.6962
same,OD490 Well 3,"Caco-2 cell line; 10μM, second assay",0.5912
same,OD490 Mean,"Caco-2 cell line; 10μM, third assay",0.5909
same,OD490 Well 1,"Caco-2 cell line; 10μM, third assay",0.6012
same,OD490 Well 2,"Caco-2 cell line; 10μM, third assay",0.6583
same,OD490 Well 3,"Caco-2 cell line; 10μM, third assay",0.5132
same,OD490 Mean,"Caco-2 cell line; 25μM, first assay",0.5366
same,OD490 Well 1,"Caco-2 cell line; 25μM, first assay",0.5485
same,OD490 Well 2,"Caco-2 cell line; 25μM, first assay",0.5284
same,OD490 Well 3,"Caco-2 cell line; 25μM, first assay",0.5329
same,OD490 Mean,"Caco-2 cell line; 25μM, second assay",0.5966
same,OD490 Well 1,"Caco-2 cell line; 25μM, second assay",0.5969
same,OD490 Well 2,"Caco-2 cell line; 25μM, second assay",0.6213
same,OD490 Well 3,"Caco-2 cell line; 25μM, second assay",0.5715
same,OD490 Mean,"Caco-2 cell line; 25μM, third assay",0.5678
same,OD490 Well 1,"Caco-2 cell line; 25μM, third assay",0.5784
same,OD490 Well 2,"Caco-2 cell line; 25μM, third assay",0.5810
same,OD490 Well 3,"Caco-2 cell line; 25μM, third assay",0.5439
same,OD490 Mean,"Caco-2 cell line; 50μM, first assay",0.4955
same,OD490 Well 1,"Caco-2 cell line; 50μM, first assay",0.4127
same,OD490 Well 2,"Caco-2 cell line; 50μM, first assay",0.5627
same,OD490 Well 3,"Caco-2 cell line; 50μM, first assay",0.5110
same,OD490 Mean,"Caco-2 cell line; 50μM, second assay",0.5572
same,OD490 Well 1,"Caco-2 cell line; 50μM, second assay",0.594
same,OD490 Well 2,"Caco-2 cell line; 50μM, second assay",0.5177
same,OD490 Well 3,"Caco-2 cell line; 50μM, second assay",0.5598
same,OD490 Mean,"Caco-2 cell line; 50μM, third assay",0.5174
same,OD490 Well 1,"Caco-2 cell line; 50μM, third assay",0.5287
same,OD490 Well 2,"Caco-2 cell line; 50μM, third assay",0.5021
same,OD490 Well 3,"Caco-2 cell line; 50μM, third assay",0.5214
same,OD490 Mean,"Caco-2 cell line; 100μM, first assay",0.4461
same,OD490 Well 1,"Caco-2 cell line; 100μM, first assay",0.4497
same,OD490 Well 2,"Caco-2 cell line; 100μM, first assay",0.4701
same,OD490 Well 3,"Caco-2 cell line; 100μM, first assay",0.4184
same,OD490 Mean,"Caco-2 cell line; 100μM, second assay",0.5109
same,OD490 Well 1,"Caco-2 cell line; 100μM, second assay",0.5213
same,OD490 Well 2,"Caco-2 cell line; 100μM, second assay",0.5306
same,OD490 Well 3,"Caco-2 cell line; 100μM, second assay",0.4809
same,OD490 Mean,"Caco-2 cell line; 100μM, third assay",0.4670
same,OD490 Well 1,"Caco-2 cell line; 100μM, third assay",0.4321
same,OD490 Well 2,"Caco-2 cell line; 100μM, third assay",0.4767
same,OD490 Well 3,"Caco-2 cell line; 100μM, third assay",0.4922
same,IC50,"Caco-2 cell line; Homo sapiens, Caco-2, MTS assay, 24 h exposure",112 µM
same,IC50,"T24 cell line; Homo sapiens, T-24, MTS assay, 24 h exposure",129 µM
same,OD490 Mean,"T24 cell line; 0.5μM, first assay",1.5184
same,OD490 Well 1,"T24 cell line; 0.5μM, first assay",1.3936
same,OD490 Well 2,"T24 cell line; 0.5μM, first assay",1.6757
same,OD490 Well 3,"T24 cell line; 0.5μM, first assay",1.4858
same,OD490 Mean,"T24 cell line; 0.5μM, second assay",1.7880
same,OD490 Well 1,"T24 cell line; 0.5μM, second assay",1.9582
same,OD490 Well 2,"T24 cell line; 0.5μM, second assay",1.7425
same,OD490 Well 3,"T24 cell line; 0.5μM, second assay",1.6632
same,OD490 Mean,"T24 cell line; 0.5μM, third assay",1.7701
same,OD490 Well 1,"T24 cell line; 0.5μM, third assay",1.9582
same,OD490 Well 2,"T24 cell line; 0.5μM, third assay",1.6852
same,OD490 Well 3,"T24 cell line; 0.5μM, third assay",1.6669
same,OD490 Mean,"T24 cell line; 1μM, first assay",1.8525
same,OD490 Well 1,"T24 cell line; 1μM, first assay",1.8866
same,OD490 Well 2,"T24 cell line; 1μM, first assay",1.8580
same,OD490 Well 3,"T24 cell line; 1μM, first assay",1.8130
same,OD490 Mean,"T24 cell line; 1μM, second assay",1.7956
same,OD490 Well 1,"T24 cell line; 1μM, second assay",1.8475
same,OD490 Well 2,"T24 cell line; 1μM, second assay",1.7952
same,OD490 Well 3,"T24 cell line; 1μM, second assay",1.7442
same,OD490 Mean,"T24 cell line; 1μM, third assay",1.6875
same,OD490 Well 1,"T24 cell line; 1μM, third assay",1.4752
same,OD490 Well 2,"T24 cell line; 1μM, third assay",1.8852
same,OD490 Well 3,"T24 cell line; 1μM, third assay",1.7020
same,OD490 Mean,"T24 cell line; 10μM, first assay",1.8245
same,OD490 Well 1,"T24 cell line; 10μM, first assay",1.8141
same,OD490 Well 2,"T24 cell line; 10μM, first assay",1.7506
same,OD490 Well 3,"T24 cell line; 10μM, first assay",1.9088
same,OD490 Mean,"T24 cell line; 10μM, second assay",1.6766
same,OD490 Well 1,"T24 cell line; 10μM, second assay",1.5874
same,OD490 Well 2,"T24 cell line; 10μM, second assay",1.5998
same,OD490 Well 3,"T24 cell line; 10μM, second assay",1.8425
same,OD490 Mean,"T24 cell line; 10μM, third assay",1.6451
same,OD490 Well 1,"T24 cell line; 10μM, third assay",1.7425
same,OD490 Well 2,"T24 cell line; 10μM, third assay",1.6625
same,OD490 Well 3,"T24 cell line; 10μM, third assay",1.5302
same,OD490 Mean,"T24 cell line; 25μM, first assay",1.7708
same,OD490 Well 1,"T24 cell line; 25μM, first assay",1.7726
same,OD490 Well 2,"T24 cell line; 25μM, first assay",1.7434
same,OD490 Well 3,"T24 cell line; 25μM, first assay",1.7965
same,OD490 Mean,"T24 cell line; 25μM, second assay",1.7004
same,OD490 Well 1,"T24 cell line; 25μM, second assay",1.7416
same,OD490 Well 2,"T24 cell line; 25μM, second assay",1.7723
same,OD490 Well 3,"T24 cell line; 25μM, second assay",1.5874
same,OD490 Mean,"T24 cell line; 25μM, third assay",1.7296
same,OD490 Well 1,"T24 cell line; 25μM, third assay",1.7711
same,OD490 Well 2,"T24 cell line; 25μM, third assay",1.6854
same,OD490 Well 3,"T24 cell line; 25μM, third assay",1.7324
same,OD490 Mean,"T24 cell line; 50μM, first assay",1.5876
same,OD490 Well 1,"T24 cell line; 50μM, first assay",1.5372
same,OD490 Well 2,"T24 cell line; 50μM, first assay",1.6410
same,OD490 Well 3,"T24 cell line; 50μM, first assay",1.5845
same,OD490 Mean,"T24 cell line; 50μM, second assay",1.6611
same,OD490 Well 1,"T24 cell line; 50μM, second assay",1.6325
same,OD490 Well 2,"T24 cell line; 50μM, second assay",1.6666
same,OD490 Well 3,"T24 cell line; 50μM, second assay",1.6841
same,OD490 Mean,"T24 cell line; 50μM, third assay",1.4371
same,OD490 Well 1,"T24 cell line; 50μM, third assay",1.3024
same,OD490 Well 2,"T24 cell line; 50μM, third assay",1.5270
same,OD490 Well 3,"T24 cell line; 50μM, third assay",1.4820
same,OD490 Mean,"T24 cell line; 100μM, first assay",1.3979
same,OD490 Well 1,"T24 cell line; 100μM, first assay",1.3668
same,OD490 Well 2,"T24 cell line; 100μM, first assay",1.4841
same,OD490 Well 3,"T24 cell line; 100μM, first assay",1.3428
same,OD490 Mean,"T24 cell line; 100μM, second assay",1.3537
same,OD490 Well 1,"T24 cell line; 100μM, second assay",1.3658
same,OD490 Well 2,"T24 cell line; 100μM, second assay",1.3365
same,OD490 Well 3,"T24 cell line; 100μM, second assay",1.3587
same,OD490 Mean,"T24 cell line; 100μM, third assay",1.3785
same,OD490 Well 1,"T24 cell line; 100μM, third assay",1.4550
same,OD490 Well 2,"T24 cell line; 100μM, third assay",1.3885
same,OD490 Well 3,"T24 cell line; 100μM, third assay",1.2920

# Reference: article PMC8037182, “Solvothermal Synthesis of Multiple Dihydropyrimidinones at a Time as Inhibitors of Eg5” (Molecules, 2021)
